Article PMC10974242, “Killing of Plasmodium Sporozoites by Basic Amphipathic α-Helical Fusion Peptides” (Microorganisms, 2024)
Several values for one entry are separate records, joined by “and”; a condition that tells them apart may be missing. Equal entries are not always repeated. No end group written: not given here. *: point of attachment. FITC = O=C1OC2(c3ccc(O)cc3Oc3cc(O)ccc32)c2ccc(NC(=S)*)cc21

How the values were obtained:
[1] = test system: P. berghei (Pb) salivary gland sporozoites; assay type: cell-based, P. berghei ANKA; details: for killing of GFP-expressing Pb sporozoites (in words): 3-9 independent experiments
Method: (§1) To assess the cytotoxic effect of the different peptides on sporozoites, we performed an in vitro assay as previously described. Briefly, sporozoites were incubated at 37 °C for 45 min with different peptides in the presence of 10% fetal calf serum (FCS). Samples were next, incubated for 10 min with 5 µg/mL propidium iodide (PI, Invitrogen, WA, USA) on ice and either imaged in an inverted Axio Observer Z.1 microscope (Zeiss, Oberkochen, Germany) and analyzed using Fiji or diluted 10 times with cold PBS before acquisition on a CytoFLEX S flow cytometer (Beckman Coulter, Brea, CA, USA). For the Pf cytotoxic assay, a final concentration of 0.5 µM cytochalasin D (Sigma-Aldrich) was used in some conditions. Viability was defined as the percentage of GFP+PI- sporozoites to the sum of GFP+PI-, GFP+PI+, and GFP-PI+ sporozoites. Data were analyzed using the CytExpert 2.0 software (Beckman Coulter).
(§2) To evaluate the killing of plasmodial sporozoites by membrane-active molecules, we tested the activity of cationic amphipathic α-helical peptides listed in Figure 1 on P. berghei (Pb), P. yoelii (Py), and P. falciparum (Pf) salivary gland sporozoites in vitro. Quantification of sporozoite death was measured by flow cytometry based on the uptake of propidium iodide (PI), a live cell impermeant nucleic acid fluorescent dye, and/or by the loss of parasite fluorescence following 45 min incubation at 37 °C in PBS 10% fetal calf serum (FCS).

[2] = test system: CD4+ T cells susceptible to HIV infection; details: cited from earlier work
Description: (§3) We next tested the killing activity of a series of cationic amphipathic peptides consisting of penetratin (Figure 1, RK16), a cell-penetrating peptide (CPP) derived from the Drosophila melanogaster homeotic protein antennapedia a-helix 3 [25], fused with peptides derived from the a-helix 18 of the antiapoptosis clone 11 (AAC11) also known as Apoptosis Inhibitor 5 protein [26] (Figure 1, RL37, RT39, and RT53).

[3] = test system: cancer cells; details: cited from earlier work
Description: as §3

[4] = test system: human cells; details: cited from earlier work
Description: Conversely, RT53, which combines the sequences of two basic amphipathic helical peptides (Figure 1B), one capable of translocating into cells and the other containing a heptad leucine repeat domain, which acts as a protein–protein interaction domain [32, 39], was able to kill Pb and Pf sporozoites.

[5] = test system: P. falciparum (Pf) salivary gland sporozoites; experiment: Sporozoite cytotoxicity assay (PI uptake), with or without cytochalasin D; assay type: cell-based; details: 45 min, 37 °C; for killing of Pf sporozoites (in words): 20 µM peptide, PBS 10% FCS
Method: as §1, §2

[6] = test system: Pb sporozoites; experiment: Dynamic microscopy and gliding motility assay of sporozoites; assay type: cell-based, P. berghei ANKA
Method: To visualize the killing of the sporozoites by the peptide, Pb sporozoites expressing mCherry were incubated with 20 μM of RT39 and RT39-FITC. First, 5000 sporozoites were activated in 10% FCS/PBS on an 18-well slide (iBidi, Gräfelfing, Germany). After 5 min, the peptide was added with 1 μM of To-Pro 3 and the sporozoites were immediately recorded for 15–30 min using a spinning-disk confocal system (UltraView ERS, PerkinElmer, Shelton, CT, USA) controlled by Volocity (PerkinElmer), composed of 4 Diode Pumped Solid State Lasers, a Yokogawa Confocal Scanner Unit CSU22, a z-axis piezoelectric actuator, and a Hamamatsu Orca-Flash 4.0 camera mounted on a Axiovert 200 microscope (Zeiss). Time-lapses were analyzed using Fiji.
To assess gliding motility, 5000 sporozoites were resuspended in 10% FCS/PBS in a final volume of 10 µL. The resulting suspension was transferred to an 18-well slide (iBidi) and centrifuged at 400× g for 3 min at 4 °C. The slide was then allowed to equilibrate at 37 °C, 5% CO2 for 3 min in the incubation chamber (Incubation System S, Zeiss) of an inverted epifluorescence wide-field microscope (AxioObserver Z.1, Zeiss) equipped with a LED illumination system (Colibri2, Zeiss), a CCD camera (AxioCam MR, Zeiss), and controlled by the AxioVision software (version 4.8.2.0, Zeiss). After 3 min, a time-lapse movie at a rate of one image per second was recorded for 2 min to control for initial parasite motility. After the 2 min recording, 10 µL of PBS or 20 µM of RT39 were added on top, and the parasites were immediately imaged for 20 min. The average sporozoite velocity at different time points was determined using the MTrack2 plug-in from Fiji.
RT39 induced a fast killing of Pb sporozoites in comparison with anti-CSP antibody as measured by flow cytometry. While 20 µM of the cytotoxic peptide killed most parasites before 5 min of incubation, 10 µg/mL of cytotoxic antibody needed more than 20 min to eliminate the majority of sporozoites (Figure 3A). To better understand the way RT39 is acting on Pb sporozoites, we dynamically imaged the cytotoxic effect of the peptide on fluorescent sporozoites in the presence of To-Pro 3, a live-cell impermeant far-red fluorescent nucleic acid dye. Given its fast-killing kinetics, RT39 was added to a microscopy chamber containing PBS 10% FCS and sporozoites, which were immediately recorded for 20 min at 37 °C. In the presence of FCS, most sporozoites move in a circular way in a substrate-dependent manner. Sporozoite death was assessed by the incorporation of To-Pro 3 and/or by the loss of cytoplasmic fluorescence. Following the addition of RT39 to sporozoites, a lag phase of around 5 min was observed, probably corresponding to the diffusion and peptide binding to sporozoites, after which parasites started to die in quick succession (Figure 3B).

[7] = test system: P. berghei (Pb) salivary gland sporozoites; assay type: cell-based, P. berghei ANKA; details: 20 µM peptide, 37 °C, flow cytometry, n = 2
[8] = test system: Pf oocysts; details: in vivo, at concentrations that start to be toxic to mosquitoes; cited from earlier work
[9] = test system: P. cynomolgi oocysts; details: in vivo, at concentrations that start to be toxic to mosquitoes; cited from earlier work
[10] = test system: P. yoelii (Py) salivary gland sporozoites; experiment: Sporozoite cytotoxicity assay (PI uptake / loss of fluorescence); assay type: cell-based, P. yoelii 17XNL; details: 100 µM, 45 min incubation, 10% FCS/PBS; 3-4 independent experiments
Method: as §1, with “Viability was defined as the percentage of GFP+PI- sporozoites to the sum of GFP+PI-, GFP+PI+, and GFP-PI+ sporozoites.” left out
as §2

[11] = test system: P. knowlesi oocysts; details: in vivo, at concentrations that start to be toxic to mosquitoes; cited from earlier work
[12] = test system: Escherichia coli DH5α (Ec); experiment: E. coli viability, CFU quantification after incubation with cecropin B; assay type: cell-based; details: 2 µM cecropin B, 10 min, 37 °C, 10% FCS/PBS, CFU normalised to control; 3-4 independent experiments
Method: Escherichia coli DH5α (Ec) were grown at 37 °C under agitation in LB medium at an OD620 of approximately 0.35 (corresponding to 10^8 CFU/mL). After centrifugation and washing with PBS, the equivalent of 10^7 colony-forming units (CFUs)/mL were incubated at 37 °C for 10 min with or without Cecropin B (Sigma-Aldrich) in 10%FCS/PBS at concentrations ranging from 2 to 100 μM. The suspensions of bacteria were diluted 1000× in PBS and 50 µL were spread on LB-agar plates for CFU quantification. Viability was assessed by normalizing the number of CFU to the control group. A sample of E. coli heated at 70 °C for 10 min was used as a death control.
Cecropin B is a prototypical antimicrobial peptide (AMP, Figure 1) discovered in the hemolymph of the Cecropia moth. […] Since our sporozoite killing assay contains 10% FCS, which can inhibit the antimicrobial activity of several AMPs, we first tested the antimicrobial activity of cecropin B in the presence of 10% FCS.

[13] = test system: P. gallinaceum sporozoites; details: 250 µM; cited from earlier work
Method: Many natural antimicrobial peptides (AMPs), such as magainin, cecropin, and defensins, can kill oocysts from different plasmodial species when injected or over-expressed in the insect hemolymph. However, avian-infecting P. gallinaceum sporozoites are resistant to incubation with 250 µM of the AMPs metalnikowin, thanatin, drosocin, and metchnikowin. […] Yet, despite rendering mosquitoes susceptible to Gram-positive bacterial challenge, the k ...

[14] = 20 µM peptide, 45 min, 37 °C, 10% FCS/PBS, flow cytometry

RQIKIWFQNRRMKWKK [RK16, cell-penetrating peptide derived from the Drosophila melanogaster homeotic protein antennapedia a-helix 3, reference compound]
killing of GFP-expressing Pb sporozoites (in words) [1, 14]: did not significantly kill

RQIKIWFQNRRMKWKKAKLNAEKLKDFKIRLQYFARGLQVYIRQLRLALQGKT [RT53]
Pb sporozoites killed [1, 14]: around 50% | killing of GFP-expressing Pb sporozoites (in words) [1, 14]: able to kill | cell death of CD4+ T cells susceptible to HIV infection [2]: elicit the cell death | cell death of cancer cells [3]: elicit the cell death | incubation time at which membrane permeabilization plateaus [4]: 60 min | membrane permeabilization activity compared with RT39 [4]: equivalent or higher | killing of Pf sporozoites (in words) [5]: able to kill

RQIKIWFQNRRMKWKKKDFKIRLQYFARGLQVYIRQL [RL37, penetratin fused with a peptide derived from the a-helix 18 of AAC11]
killing of GFP-expressing Pb sporozoites (in words) [1, 14]: did not significantly kill

RQIKIWFQNRRMKWKKLQYFAAGLQVYIRQLRLALQGGKT [RT39M]
Pb sporozoite death compared with RT39 ([1]; 2, 10, 40, 80 μM, 45 min, 37 °C, flow cytometry, n = 3): strongly decreased

RQIKIWFQNRRMKWKKLQYFARGLQVYIRQLRLALQGGKT [RT39, penetratin fused with shorter AAC11 a-helix 18 peptide]
lethality to Pb sporozoites compared with cytotoxic anti-CSP antibody ([1]; 20 µM peptide vs 10 µg/mL anti-PbCSP (3D11), 45 min, 37 °C): as lethal as or more than | time of sudden stop in motility with To-Pro 3 entry and mCherry leakage ([6]; 20 µM RT39, exemplified dying sporozoite): ~ 450 s | effect on sporozoite motility (speed) before permeabilization ([6]; 20 µM RT39, two-minute analysis of speed at end of lag phase or beginning of death plateau, 2-3 independent experiments): did not significantly impact sporozoite motility | lag phase before parasites start to die ([6]; 20 µM RT39 added to sporozoites in PBS 10% FCS, 37 °C, recorded 20 min, microscopy): around 5 min | incubation time at which most Pb sporozoites are killed [7]: < 5 min and 5 min | cell death of CD4+ T cells susceptible to HIV infection [2]: elicit the cell death | cell death of cancer cells [3]: elicit the cell death | lethality to Pf sporozoites compared with cytotoxic anti-CSP antibody ([5]; 20 µM peptide vs cytotoxic anti-CSP antibody): as lethal as or more than | killing of Pf sporozoites (in words) [5]: stronger killing activity than RT53

cecropin B: cationic amphipathic antimicrobial insect peptide from Hyalophora cecropia, purchased from Sigma-Aldrich (KWKVFKKIEKMGRNIRNGIVKAGPAIAVLGEAKAL; ends and bridges not checked; UniProt P01508 27-61, looked up)
development of Pf oocysts [8]: inhibit the development | development of P. cynomolgi oocysts [9]: inhibit the development | killing of Py sporozoites [10]: did not significantly kill | killing of Pb sporozoites ([1]; 100 µM, 45 min incubation, 10% FCS/PBS, 3-4 independent experiments): did not significantly kill | development of P. knowlesi oocysts [11]: inhibit the development | killing of E. coli [12]: efficiently kill

drosocin
susceptibility of P. gallinaceum sporozoites to incubation [13]: resistant

metchnikowin
susceptibility of P. gallinaceum sporozoites to incubation [13]: resistant

thanatin
susceptibility of P. gallinaceum sporozoites to incubation [13]: resistant

{FITC}-RQIKIWFQNRRMKWKKLQYFARGLQVYIRQLRLALQGGKT [RT39-FITC, FITC-labeled RT39]
Ratio MFI SPZ/Bk of live parasites ([6]; 20 µM RT39-FITC in solution, spinning-disk microscopy, 1 μM To-Pro 3, 10% FCS/PBS): ~ 1 | site of membrane permeabilization on the sporozoite body ([6]; 20 μM RT39-FITC, 1 μM To-Pro 3, n = 34 sporozoites from 2 independent experiments): frequently occurred at the posterior part of the sporozoite body
